In PubChem BioAssay (NCI):
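Test compounds were applied to cells in 96-well plates for 48 hours at 5 doses. At the TGI there is no net growth.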

Legend:
Experiment in all cases: inhibition of tumour cell growth, NCI panel, 48 h
LOX IMVI melanoma = test system: LOX IMVI melanoma
PC-3 prostate = test system: PC-3 prostate
CCRF-CEM leukemia = test system: CCRF-CEM leukemia
SK-MEL-2 melanoma = test system: SK-MEL-2 melanoma
T-47D breast = test system: T-47D breast
MDA-MB-435 = test system: MDA-MB-435
OVCAR-3 ovarian = test system: OVCAR-3 ovarian
MDA-MB-231 breast = test system: MDA-MB-231 breast
SK-OV-3 ovarian = test system: SK-OV-3 ovarian
MCF7 breast = test system: MCF7 breast
IGROV1 ovarian = test system: IGROV1 ovarian
786-0 renal = test system: 786-0 renal
MDA-N = test system: MDA-N
SNB-75 CNS = test system: SNB-75 CNS
SF-295 CNS = test system: SF-295 CNS
NCI-H460 lung = test system: NCI-H460 lung
OVCAR-5 ovarian = test system: OVCAR-5 ovarian
SW-620 colon = test system: SW-620 colon
SN12C renal = test system: SN12C renal
CAKI-1 renal = test system: CAKI-1 renal
RPMI-8226 leukemia = test system: RPMI-8226 leukemia
K-562 leukemia = test system: K-562 leukemia
ACHN renal = test system: ACHN renal
UACC-257 melanoma = test system: UACC-257 melanoma
UO-31 renal = test system: UO-31 renal
DU-145 prostate = test system: DU-145 prostate
MALME-3M melanoma = test system: MALME-3M melanoma
SK-MEL-28 melanoma = test system: SK-MEL-28 melanoma
NCI-H522 lung = test system: NCI-H522 lung
SNB-19 CNS = test system: SNB-19 CNS
OVCAR-8 ovarian = test system: OVCAR-8 ovarian
SR leukemia = test system: SR leukemia
HS 578T breast = test system: HS 578T breast
SF-268 CNS = test system: SF-268 CNS
SK-MEL-5 melanoma = test system: SK-MEL-5 melanoma
RXF 393 renal = test system: RXF 393 renal
COLO 205 colon = test system: COLO 205 colon
NCI-H226 lung = test system: NCI-H226 lung
HL-60(TB) leukemia = test system: HL-60(TB) leukemia
HCT-116 colon = test system: HCT-116 colon
HT29 colon = test system: HT29 colon
EKVX NSCLC = test system: EKVX NSCLC
A498 renal = test system: A498 renal
HCT-15 colon = test system: HCT-15 colon
OVCAR-4 ovarian = test system: OVCAR-4 ovarian
HOP-92 NSCLC = test system: HOP-92 NSCLC
HCC-2998 colon = test system: HCC-2998 colon
BT-549 breast = test system: BT-549 breast
U251 CNS = test system: U251 CNS
NCI-H23 lung = test system: NCI-H23 lung
KM12 colon = test system: KM12 colon
M14 melanoma = test system: M14 melanoma
HOP-62 NSCLC = test system: HOP-62 NSCLC
UACC-62 melanoma = test system: UACC-62 melanoma
NCI/ADR-RES ovarian = test system: NCI/ADR-RES ovarian
TK-10 renal = test system: TK-10 renal
A549 NSCLC = test system: A549 NSCLC
SF-539 CNS = test system: SF-539 CNS
MOLT-4 leukemia = test system: MOLT-4 leukemia
DLD-1 colon = test system: DLD-1 colon
SNB-78 CNS = test system: SNB-78 CNS
DMS 114 small cell lung = test system: DMS 114 small cell lung
M19-MEL melanoma = test system: M19-MEL melanoma

`Cn1cnc([N+](=O)[O-])c1Sc1nc(N)nc2c1ncn2Cc1ccccc1` was tested, and the TGI (LOX IMVI melanoma) was 65.4 µM, the TGI (PC-3 prostate) was 36.3 µM and the TGI (CCRF-CEM leukemia) was over 100 µM. It also gave a TGI (SK-MEL-2 melanoma) of 40.4 µM, a TGI (T-47D breast) of 40.9 µM and a TGI (MDA-MB-435) of 72.4 µM. For the same molecule, the TGI (OVCAR-3 ovarian) was 9.97 µM, the TGI (MDA-MB-231 breast) was 41.3 µM and the TGI (SK-OV-3 ovarian) was 57 µM. The TGI (MCF7 breast) was over 100 µM, the TGI (IGROV1 ovarian) was over 100 µM and the TGI (786-0 renal) was 68.2 µM. It also gave a TGI (MDA-N) of 44.9 µM, a TGI (SNB-75 CNS) of over 100 µM and a TGI (SF-295 CNS) of over 100 µM. The TGI (NCI-H460 lung) was 34.7 µM, the TGI (OVCAR-5 ovarian) was 63.1 µM and the TGI (SW-620 colon) was 78.2 µM. It also gave a TGI (SN12C renal) of 37.3 µM, a TGI (CAKI-1 renal) of 31.1 µM and a TGI (RPMI-8226 leukemia) of 72.5 µM. The TGI (K-562 leukemia) was over 100 µM, the TGI (ACHN renal) was 31.3 µM and the TGI (UACC-257 melanoma) was 30.1 µM. For the same molecule, the TGI (UO-31 renal) was 34.2 µM, the TGI (DU-145 prostate) was over 100 µM and the TGI (MALME-3M melanoma) was 30.8 µM. For the same molecule, the TGI (SK-MEL-28 melanoma) was 42.5 µM, the TGI (NCI-H522 lung) was 24.1 µM and the TGI (SNB-19 CNS) was over 100 µM. The TGI (OVCAR-8 ovarian) was 72.2 µM, the TGI (SR leukemia) was over 100 µM and the TGI (HS 578T breast) was 86.5 µM. The TGI (SF-268 CNS) was 44.6 µM, the TGI (SK-MEL-5 melanoma) was 41.2 µM and the TGI (RXF 393 renal) was 43.7 µM. The TGI (COLO 205 colon) was 32.1 µM, the TGI (NCI-H226 lung) was 60.2 µM and the TGI (HL-60(TB) leukemia) was 47.7 µM. It also gave a TGI (HCT-116 colon) of 42.1 µM, a TGI (HT29 colon) of 67.8 µM and a TGI (EKVX NSCLC) of 42.3 µM. The TGI (A498 renal) was 68.3 µM, the TGI (HCT-15 colon) was 45.8 µM and the TGI (OVCAR-4 ovarian) was over 100 µM. For the same molecule, the TGI (HOP-92 NSCLC) was 35.9 µM, the TGI (HCC-2998 colon) was 29.4 µM and the TGI (BT-549 breast) was 57.2 µM. The TGI (U251 CNS) was 60.1 µM, the TGI (NCI-H23 lung) was 36.9 µM and the TGI (KM12 colon) was over 100 µM. For the same molecule, the TGI (M14 melanoma) was 69 µM, the TGI (HOP-62 NSCLC) was 55.4 µM and the TGI (UACC-62 melanoma) was 31.4 µM. The TGI (NCI/ADR-RES ovarian) was over 100 µM, the TGI (TK-10 renal) was 41.9 µM and the TGI (A549 NSCLC) was 84.8 µM.

In the case of `CCCCCC(/C=N/N)C(O)(C(F)(F)F)C(F)(F)F` (configuration not stated), the TGI (LOX IMVI melanoma) is reported as 9.49 µM, the TGI (PC-3 prostate) is reported as 6.82 µM and the TGI (CCRF-CEM leukemia) is reported as over 10 µM. For the same molecule, the TGI (SK-MEL-2 melanoma) was over 10 µM, the TGI (T-47D breast) was over 10 µM and the TGI (MDA-MB-435) was over 10 µM. The TGI (OVCAR-3 ovarian) was over 10 µM, the TGI (MDA-MB-231 breast) was over 10 µM and the TGI (SK-OV-3 ovarian) was over 10 µM. It also gave a TGI (MCF7 breast) of over 10 µM, a TGI (IGROV1 ovarian) of over 10 µM and a TGI (786-0 renal) of over 10 µM. For the same molecule, the TGI (MDA-N) was over 10 µM, the TGI (SNB-75 CNS) was 9.63 µM and the TGI (SF-295 CNS) was 8.6 µM. The TGI (NCI-H460 lung) was 8.03 µM, the TGI (OVCAR-5 ovarian) was over 10 µM and the TGI (SW-620 colon) was over 10 µM. For the same molecule, the TGI (SN12C renal) was over 10 µM, the TGI (CAKI-1 renal) was 6.02 µM and the TGI (RPMI-8226 leukemia) was over 10 µM. It also gave a TGI (ACHN renal) of over 10 µM, a TGI (UACC-257 melanoma) of over 10 µM and a TGI (DU-145 prostate) of 6.09 µM. It also gave a TGI (MALME-3M melanoma) of 6.69 µM, a TGI (SK-MEL-28 melanoma) of 7.43 µM and a TGI (NCI-H522 lung) of over 10 µM. For the same molecule, the TGI (SNB-19 CNS) was over 10 µM, the TGI (OVCAR-8 ovarian) was over 10 µM and the TGI (SF-539 CNS) was over 10 µM. It also gave a TGI (SR leukemia) of over 10 µM, a TGI (HS 578T breast) of 7.12 µM and a TGI (SF-268 CNS) of 5.92 µM. It also gave a TGI (SK-MEL-5 melanoma) of 3.92 µM, a TGI (RXF 393 renal) of over 10 µM and a TGI (COLO 205 colon) of 3.4 µM. The TGI (NCI-H226 lung) was 8.63 µM, the TGI (HL-60(TB) leukemia) was over 10 µM and the TGI (HCT-116 colon) was 9.02 µM. The TGI (HT29 colon) was over 10 µM, the TGI (EKVX NSCLC) was 7.3 µM and the TGI (A498 renal) was 7.95 µM. The TGI (MOLT-4 leukemia) was over 10 µM, the TGI (HCT-15 colon) was 9.54 µM and the TGI (OVCAR-4 ovarian) was over 10 µM. For the same molecule, the TGI (HOP-92 NSCLC) was 6.36 µM, the TGI (HCC-2998 colon) was over 10 µM and the TGI (BT-549 breast) was 9.27 µM. The TGI (U251 CNS) was over 10 µM, the TGI (NCI-H23 lung) was 9.49 µM and the TGI (KM12 colon) was over 10 µM. For the same molecule, the TGI (M14 melanoma) was over 10 µM, the TGI (HOP-62 NSCLC) was over 10 µM and the TGI (UACC-62 melanoma) was over 10 µM. It also gave a TGI (NCI/ADR-RES ovarian) of over 10 µM, a TGI (TK-10 renal) of over 10 µM and a TGI (A549 NSCLC) of over 10 µM.

Molecule `O=c1[nH]c(/C=C(\O)c2ccncc2)nc2ccccc12` has a TGI (CCRF-CEM leukemia) of over 100 µM, a TGI (SK-MEL-2 melanoma) of over 100 µM and a TGI (OVCAR-3 ovarian) of over 100 µM. The TGI (SK-OV-3 ovarian) was over 100 µM, the TGI (IGROV1 ovarian) was over 100 µM and the TGI (786-0 renal) was over 100 µM. For the same molecule, the TGI (SNB-75 CNS) was over 100 µM, the TGI (SF-295 CNS) was over 100 µM and the TGI (NCI-H460 lung) was over 100 µM. The TGI (OVCAR-5 ovarian) was over 100 µM, the TGI (SW-620 colon) was over 100 µM and the TGI (SN12C renal) was over 100 µM. It also gave a TGI (CAKI-1 renal) of over 100 µM, a TGI (RPMI-8226 leukemia) of over 100 µM and a TGI (K-562 leukemia) of over 100 µM. It also gave a TGI (ACHN renal) of over 100 µM, a TGI (UACC-257 melanoma) of over 100 µM and a TGI (UO-31 renal) of over 100 µM. For the same molecule, the TGI (MALME-3M melanoma) was over 100 µM, the TGI (SK-MEL-28 melanoma) was over 100 µM and the TGI (NCI-H522 lung) was over 100 µM. It also gave a TGI (SNB-19 CNS) of over 100 µM, a TGI (OVCAR-8 ovarian) of over 100 µM and a TGI (DLD-1 colon) of over 100 µM. For the same molecule, the TGI (SR leukemia) was over 100 µM, the TGI (SF-268 CNS) was over 100 µM and the TGI (SK-MEL-5 melanoma) was over 100 µM. For the same molecule, the TGI (COLO 205 colon) was over 100 µM, the TGI (NCI-H226 lung) was over 100 µM and the TGI (HL-60(TB) leukemia) was over 100 µM. For the same molecule, the TGI (SNB-78 CNS) was over 100 µM, the TGI (HCT-116 colon) was over 100 µM and the TGI (HT29 colon) was over 100 µM. It also gave a TGI (EKVX NSCLC) of over 100 µM, a TGI (A498 renal) of over 100 µM and a TGI (MOLT-4 leukemia) of over 100 µM. For the same molecule, the TGI (HCT-15 colon) was over 100 µM, the TGI (OVCAR-4 ovarian) was over 100 µM and the TGI (HCC-2998 colon) was over 100 µM. It also gave a TGI (DMS 114 small cell lung) of over 100 µM, a TGI (U251 CNS) of over 100 µM and a TGI (NCI-H23 lung) of over 100 µM. For the same molecule, the TGI (M14 melanoma) was over 100 µM, the TGI (HOP-62 NSCLC) was over 100 µM and the TGI (UACC-62 melanoma) was over 100 µM. It also gave a TGI (M19-MEL melanoma) of over 100 µM, a TGI (TK-10 renal) of over 100 µM and a TGI (A549 NSCLC) of over 100 µM.
